We go through 61 molecules from patent US20120157401A1, “METHODS FOR TREATING NEUROFIBROMATOSIS” (PTC Therapeutics, Inc., priority 2009, published 2012).

A value given as a limit tells only on which side of the number the result lay.

The subject of the first experiment is hypoxia-inducible endogenous VEGF expression. The experiment in a line: Hypoxia-inducible endogenous VEGF expression ELISA in HeLa cells, dose-response EC50 (Table 3). The format is cell-based, human. As to conditions: Homo sapiens, HeLa, read-out: ELISA EC50 μM. A digest of the protocol: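 HeLa cells kept 24-48 h under hypoxia (1% O2, 5% CO2, nitrogen balance) with or without compound, e.g. seven concentrations; secreted VEGF in conditioned medium quantified by ELISA against a standard curve. Parallel Cell Titer Glo viability under identical conditions excludes cytotoxicity.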
On to `O=C(Oc1ccc(F)cc1)N1CCc2c([nH]c3ccc(Cl)cc23)C1c1ccc(OCCCCNCCO)cc1` (stereo not shown) [Compound 735], for which the EC50 was < 0.008 µM.

For the molecule `O=C(Oc1ccc(F)cc1)N1CCc2c([nH]c3ccc(Cl)cc23)C1c1ccc(OCCCCN2CCCC2)cc1` (stereo not shown) [Compound 736], the EC50 was < 0.008 µM.

Take `COCCCNCCCCOc1ccc(C2c3[nH]c4ccc(Cl)cc4c3CCN2C(=O)Oc2ccc(F)cc2)cc1` (stereo not shown) [Compound 737]: the EC50 was in the range of 0.008 to 0.04 µM.

As to `O=C(Oc1ccc(F)cc1)N1CCc2c([nH]c3ccc(Cl)cc23)C1c1ccc(OCCCCN2CCOCC2)cc1` (stereo not shown) [Compound 738], the EC50 was < 0.008 µM.

Regarding `O=C(Oc1ccc(F)cc1)N1CCc2c([nH]c3ccc(Cl)cc23)C1c1ccc(OCCCCN2CCCCC2)cc1` (stereo not shown) [Compound 739], the EC50 was < 0.008 µM.

With `CN1CCN(CCCCOc2ccc(C3c4[nH]c5ccc(Cl)cc5c4CCN3C(=O)Oc3ccc(F)cc3)cc2)CC1` (stereo not shown) [Compound 740], the EC50 was 0.04 to 0.2 µM.

On to `O=C(Oc1ccc(F)cc1)N1CCc2c([nH]c3ccc(Cl)cc23)C1c1ccc(OCCCCNCCCn2ccnc2)cc1` (stereo not shown) [Compound 741], for which the EC50 lay within 0.04 to 0.2 µM.

For the molecule `O=C(Oc1ccc(F)cc1)N1CCc2c([nH]c3ccc(Cl)cc23)C1c1ccc(OCCCCCCNCCO)cc1` (stereo not shown) [Compound 772], the EC50 was < 0.008 µM.

`O=C(Oc1ccc(F)cc1)N1CCc2c([nH]c3ccc(Cl)cc23)C1c1ccc(OCCCCCCN2CCCC2)cc1` (stereo not shown) [Compound 773]: the EC50 is < 0.008 µM.

Turning to `CC(C)NCCCCCCOc1ccc(C2c3[nH]c4ccc(Cl)cc4c3CCN2C(=O)Oc2ccc(F)cc2)cc1` (stereo not shown) [Compound 774], the EC50 is 0.008 to 0.04 µM.

As to `COCCCNCCCCCCOc1ccc(C2c3[nH]c4ccc(Cl)cc4c3CCN2C(=O)Oc2ccc(F)cc2)cc1` (stereo not shown) [Compound 775], the EC50 was < 0.008 µM.

As to `O=C(Oc1ccc(F)cc1)N1CCc2c([nH]c3ccc(Cl)cc23)C1c1ccc(OCCCCCCN2CCOCC2)cc1` (stereo not shown) [Compound 776], the EC50 was < 0.008 µM.

Regarding `O=C(Oc1ccc(F)cc1)N1CCc2c([nH]c3ccc(Cl)cc23)C1c1ccc(OCCCCCCN2CCCCC2)cc1` (stereo not shown) [Compound 777], the half-maximal effective concentration (EC50) is < 0.008 µM.

On to `CN1CCN(CCCCCCOc2ccc(C3c4[nH]c5ccc(Cl)cc5c4CCN3C(=O)Oc3ccc(F)cc3)cc2)CC1` (stereo not shown) [Compound 778], for which the EC50 is < 0.008 µM.

As for `O=C(Oc1ccc(F)cc1)N1CCc2c([nH]c3ccc(Cl)cc23)C1c1ccc(OCCCCCCNCCCn2ccnc2)cc1` (stereo not shown) [Compound 779], the EC50 lay in the range of 0.04 to 0.2 µM.

On to `O=C(Oc1ccc(Cl)cc1)N1CCc2c([nH]c3ccc(Cl)cc23)C1c1ccc(OCCCCCCNCCO)cc1` (stereo not shown) [Compound 782], for which the EC50 is < 0.008 µM.

Take `O=C(Oc1ccc(Cl)cc1)N1CCc2c([nH]c3ccc(Cl)cc23)C1c1ccc(OCCCCCCN2CCCC2)cc1` (stereo not shown) [Compound 783]: the EC50 is < 0.008 µM.

Take `CC(C)NCCCCCCOc1ccc(C2c3[nH]c4ccc(Cl)cc4c3CCN2C(=O)Oc2ccc(Cl)cc2)cc1` (stereo not shown) [Compound 784]: the EC50 was < 0.008 µM.

Take `COCCCNCCCCCCOc1ccc(C2c3[nH]c4ccc(Cl)cc4c3CCN2C(=O)Oc2ccc(Cl)cc2)cc1` (stereo not shown) [Compound 785]: the EC50 is < 0.008 µM.

Take `O=C(Oc1ccc(Cl)cc1)N1CCc2c([nH]c3ccc(Cl)cc23)C1c1ccc(OCCCCCCN2CCOCC2)cc1` (stereo not shown) [Compound 786]: the EC50 was < 0.008 µM.

Regarding `O=C(Oc1ccc(Cl)cc1)N1CCc2c([nH]c3ccc(Cl)cc23)C1c1ccc(OCCCCCCN2CCCCC2)cc1` (stereo not shown) [Compound 787], the EC50 was < 0.008 µM.

Regarding `CN1CCN(CCCCCCOc2ccc(C3c4[nH]c5ccc(Cl)cc5c4CCN3C(=O)Oc3ccc(Cl)cc3)cc2)CC1` (stereo not shown) [Compound 788], the 50% effective concentration (EC50) is 0.008 to 0.04 µM.

Turning to `O=C(Oc1ccc(Cl)cc1)N1CCc2c([nH]c3ccc(Cl)cc23)C1c1ccc(OCCCCCCNCCCn2ccnc2)cc1` (stereo not shown) [Compound 789], the EC50 lay within 0.04 to 0.2 µM.

With `NCC(O)COc1ccc(C2c3[nH]c4ccc(Cl)cc4c3CCN2C(=O)Oc2ccc(Cl)cc2)cc1` (stereo not shown) [Compound 846], the EC50 is 0.04 to 0.2 µM.

For `CNCC(O)COc1ccc(C2c3[nH]c4ccc(Cl)cc4c3CCN2C(=O)Oc2ccc(Cl)cc2)cc1` (stereo not shown) [Compound 850], the EC50 is 0.04 to 0.2 µM.

Turning to `O=C(Oc1ccc(Cl)cc1)N1CCc2c([nH]c3ccc(Cl)cc23)C1c1ccc(OCCCN2CCOCC2)cc1` (stereo not shown) [Compound 894], the EC50 was < 0.008 µM.

For `CC(=O)N1CCN(CCCOc2ccc(C3c4[nH]c5ccc(Cl)cc5c4CCN3C(=O)Oc3ccc(Cl)cc3)cc2)CC1` (stereo not shown) [Compound 903], the EC50 is < 0.008 µM.

On to `O=C(Oc1ccc(Cl)cc1)N1CCc2c([nH]c3ccc(Cl)cc23)C1c1ccc(OCC(O)CN2CCOCC2)cc1` (stereo not shown) [Compound 904], for which the 50% effective concentration (EC50) was < 0.008 µM.

On to `COCCN(C)CCCOc1ccc(C2c3[nH]c4ccc(Cl)cc4c3CCN2C(=O)Oc2ccc(Cl)cc2)cc1` (stereo not shown) [Compound 908], for which the EC50 was < 0.008 µM.

In the case of `COCCN(CCOC)CC(O)COc1ccc(C2c3[nH]c4ccc(Cl)cc4c3CCN2C(=O)Oc2ccc(F)cc2)cc1` (stereo not shown) [Compound 913], the EC50 was < 0.008 µM.

Regarding `COCCN(CCCOc1ccc(C2c3[nH]c4ccc(Cl)cc4c3CCN2C(=O)Oc2ccc(Cl)cc2)cc1)CCOC` (stereo not shown) [Compound 916], the concentration giving a half-maximal response (EC50) was < 0.008 µM.

For `COCCN(CCOC)CC(O)COc1ccc(C2c3[nH]c4ccc(Cl)cc4c3CCN2C(=O)Oc2ccc(Cl)cc2)cc1` (stereo not shown) [Compound 918], the EC50 was < 0.008 µM.

Still in this experiment, the particulars now being: Homo sapiens; HeLa cells, hypoxic conditions (1% O2), 24-48 hours, VEGF in conditioned media; read-out: ELISA EC50.
As to `O=C(Oc1ccc(F)cc1)N1CCc2c([nH]c3ccc(Cl)cc23)C1c1ccc(OCCCCCl)cc1` (stereo not shown) [Compound 719], the EC50 was < 0.008 µM.

Turning to `O=C(Oc1ccc(F)cc1)N1CCc2c([nH]c3ccc(Cl)cc23)C1c1ccc(OCCCCCCCl)cc1` (stereo not shown) [Compound 723], the 50% effective concentration (EC50) was < 0.008 µM.

Regarding `O=C(Oc1ccc(F)cc1)N1CCc2c([nH]c3ccc(Cl)cc23)C1c1ccc(OCCCCn2ccnc2)cc1` (stereo not shown) [Compound 742], the EC50 is < 0.008 µM.

Consider `O=C(Oc1ccc(F)cc1)N1CCc2c([nH]c3ccc(Cl)cc23)C1c1ccc(OCCCCn2cncn2)cc1` (stereo not shown) [Compound 743], for which the EC50 is < 0.008 µM.

With `O=C(Oc1ccc(F)cc1)N1CCc2c([nH]c3ccc(Cl)cc23)C1c1ccc(OCCCCCCn2ccnc2)cc1` (stereo not shown) [Compound 780], the EC50 is < 0.008 µM.

Consider `O=C(Oc1ccc(F)cc1)N1CCc2c([nH]c3ccc(Cl)cc23)C1c1ccc(OCCCCCCn2cncn2)cc1` (stereo not shown) [Compound 781], for which the EC50 was < 0.008 µM.

On to `O=C(Oc1ccc(Cl)cc1)N1CCc2c([nH]c3ccc(Cl)cc23)C1c1ccc(OCCCCCCn2ccnc2)cc1` (stereo not shown) [Compound 790], for which the EC50 is < 0.008 µM.

Consider `O=C(Oc1ccc(Cl)cc1)N1CCc2c([nH]c3ccc(Cl)cc23)C1c1ccc(OCCCCCCn2cncn2)cc1` (stereo not shown) [Compound 791], for which the concentration for a half-maximal effect (EC50) was < 0.008 µM.

With `O=C(Oc1ccc(F)cc1)N1CCc2c([nH]c3ccc(Cl)cc23)C1c1ccc(OCCn2ccnn2)cc1` (stereo not shown) [Compound 833], the EC50 lay within 0.04 to 0.2 µM.

Consider `O=C(Oc1ccc(F)cc1)N1CCc2c([nH]c3ccc(Cl)cc23)C1c1ccc(OCCn2cncn2)cc1` (stereo not shown) [Compound 834], for which the EC50 lay within 0.008 to 0.04 µM.

Regarding `O=C(Oc1ccc(F)cc1)N1CCc2c([nH]c3ccc(Cl)cc23)C1c1ccc(OCCn2ccnc2)cc1` (stereo not shown) [Compound 835], the EC50 fell in the range of 0.04 to 0.2 µM.

In the case of `O=C(Oc1ccc(F)cc1)N1CCc2c([nH]c3ccc(Cl)cc23)C1c1ccc(OCCn2cccn2)cc1` (stereo not shown) [Compound 836], the EC50 fell in the range of 0.008 to 0.04 µM.

Consider `O=C(Oc1ccc(Cl)cc1)N1CCc2c([nH]c3ccc(Cl)cc23)C1c1ccc(OCCn2ccnn2)cc1` (stereo not shown) [Compound 839], for which the EC50 fell in the range of 0.008 to 0.04 µM.

Regarding `O=C(Oc1ccc(Cl)cc1)N1CCc2c([nH]c3ccc(Cl)cc23)C1c1ccc(OCCn2cncn2)cc1` (stereo not shown) [Compound 840], the EC50 was 0.008 to 0.04 µM.

As for `CC(C)(C)OC(=O)N1CCC(COc2ccc(C3c4[nH]c5ccc(Cl)cc5c4CCN3C(=O)Oc3ccc(Cl)cc3)cc2)CC1` (stereo not shown) [Compound 845], the EC50 was 0.04 to 0.2 µM.

Take `CC(=O)NCC(O)COc1ccc(C2c3[nH]c4ccc(Cl)cc4c3CCN2C(=O)Oc2ccc(Cl)cc2)cc1` (stereo not shown) [Compound 847]: the EC50 was 0.008 to 0.04 µM.

For the molecule `COC(=O)NCC(O)COc1ccc(C2c3[nH]c4ccc(Cl)cc4c3CCN2C(=O)Oc2ccc(Cl)cc2)cc1` (stereo not shown) [Compound 848], the EC50 was < 0.008 µM.

For `CS(=O)(=O)NCC(O)COc1ccc(C2c3[nH]c4ccc(Cl)cc4c3CCN2C(=O)Oc2ccc(Cl)cc2)cc1` (stereo not shown) [Compound 849], the concentration for a half-maximal effect (EC50) was in the range of 0.008 to 0.04 µM.

`O=C(Oc1ccc(Cl)cc1)N1CCc2c([nH]c3ccc(Cl)cc23)C1c1ccc(OCC(O)Cn2ccnc2)cc1` (stereo not shown) [Compound 867]: the EC50 lay within 0.008 to 0.04 µM.

`Cc1ccc(OC(=O)N2CCc3c([nH]c4ccc(Cl)cc34)C2c2ccc(OCCCn3cncn3)cc2)cc1` (stereo not shown) [Compound 882]: the EC50 was < 0.008 µM.

With `COc1ccc(OC(=O)N2CCc3c([nH]c4ccc(Cl)cc34)C2c2ccc(OCCCn3cncn3)cc2)cc1` (stereo not shown) [Compound 888], the EC50 is < 0.008 µM.

On to `O=C(Oc1ccc(F)cc1)N1CCc2c([nH]c3ccc(Cl)cc23)C1c1ccc(OCCCn2ccnc2)cc1` (stereo not shown) [Compound 889], for which the EC50 was < 0.008 µM.

For the molecule `O=C(Oc1ccccc1)N1CCc2c([nH]c3ccc(Cl)cc23)C1c1ccc(OCCCn2cncn2)cc1` (stereo not shown) [Compound 891], the EC50 was < 0.008 µM.

Consider `O=C(Oc1ccc(F)cc1)N1CCc2c([nH]c3ccc(Cl)cc23)C1c1ccc(OCCCn2cncn2)cc1` (stereo not shown) [Compound 892], for which the EC50 was < 0.008 µM.

For the molecule `Cc1ccc(OC(=O)N2CCc3c([nH]c4ccc(Cl)cc34)C2c2ccc(OCCCn3ccnc3)cc2)cc1` (stereo not shown) [Compound 900], the EC50 was < 0.008 µM.

Turning to `O=C(Oc1ccccc1)N1CCc2c([nH]c3ccc(Cl)cc23)C1c1ccc(OCCCn2ccnc2)cc1` (stereo not shown) [Compound 911], the concentration for a half-maximal effect (EC50) was < 0.008 µM.

Regarding `Cc1ccc(OC(=O)N2CCc3c([nH]c4ccc(Cl)cc34)C2c2ccc(OCCCCl)cc2)cc1` (stereo not shown) [Compound 915], the EC50 is < 0.008 µM.

Regarding `O=C(Oc1ccc(Cl)cc1)N1CCc2c([nH]c3ccc(Cl)cc23)C1c1ccc(OCCCn2ccnc2)cc1` (stereo not shown) [Compound 917], the 50% effective concentration (EC50) is < 0.008 µM.

Turning to `COc1ccc(OC(=O)N2CCc3c([nH]c4ccc(Cl)cc34)C2c2ccc(OCCCn3ccnc3)cc2)cc1` (stereo not shown) [Compound 920], the concentration giving a half-maximal response (EC50) is < 0.008 µM.
